Literature values, collected in patent publication US20160000504A1, “METHOD FOR TRAINING IMMUNE CELLS USING MILLIMETER WAVE THERAPY” (Electrohealing Holdings, Inc., priority 2014, published 2016).
Counter-ions that a name gives are not always drawn.

Test system: B16 melanoma cells
Conditions: 1 mg per kg thirty minutes prior to each treatment; MMWT 61.22 GHz, 5 day delay before first irradiation; groups seven and eight vs three and four (FIG. 2A vs FIG. 2B)

## C=CCN1CC[C@]23c4c5ccc(O)c4O[C@H]2C(=O)CC[C@@]3(O)[C@H]1C5 [naloxone hydrochloride]
  change in tumor size: effect of opioid antagonist on MMWT inhibition of tumor growth: blocks the beneficial effects of MMWT
